In the supplement of paper PMC10307832:

Experiments:
Assay in all cases: relative viability (nuclei count vs DMSO), 5 days (fraction); higher = more cells survive
201T = tested on: 201T
In short: (§1)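 Lung cancer cell lines in 1536-well plates got either a single drug or a fixed anchor-drug dose together with five library-drug doses (not always all listed) in √10 steps, by pin tool, on the day after seeding. Nuclei were counted after 5 days, and relative viability is the treated-to-vehicle ratio of nuclei counts. Values are medians of duplicate plates.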

COR-L23 = tested on: COR-L23
In short: as §1

ChaGo-K-1 = tested on: ChaGo-K-1
In short: as §1

HARA = tested on: HARA
In short: as §1

HCC-15 = tested on: HCC-15
In short: as §1

HCC-366 = tested on: HCC-366
In short: as §1

HCC-78 = tested on: HCC-78
In short: as §1

LCLC-97TM1 = tested on: LCLC-97TM1
In short: as §1

LK-2 = tested on: LK-2
In short: as §1

LOU-NH91 = tested on: LOU-NH91
In short: as §1

NCI-H1355 = tested on: NCI-H1355
In short: as §1

NCI-H1650 = tested on: NCI-H1650
In short: as §1

## C=C1C(=O)O[C@@H](CCCCCCCC)[C@@H]1C(=O)O [C-75] + CC(=O)Nc1cccc(-n2c(=O)n(C3CC3)c(=O)c3c(Nc4ccc(I)cc4F)n(C)c(=O)c(C)c32)c1 [Trametinib] (partner 0.02 µM)
201T; first compound 0.08 µM
  relative viability: 0.716
201T; first compound 0.253 µM
  relative viability: 0.824
201T; first compound 0.8 µM
  relative viability: 0.731
201T; first compound 2.53 µM
  relative viability: 0.692
201T; first compound 8 µM
  relative viability: 0.763
COR-L23; first compound 0.08 µM
  relative viability: 0.636
COR-L23; first compound 0.253 µM
  relative viability: 0.58
COR-L23; first compound 0.8 µM
  relative viability: 0.562
COR-L23; first compound 2.53 µM
  relative viability: 0.485
COR-L23; first compound 8 µM
  relative viability: 0.569
ChaGo-K-1; first compound 0.08 µM
  relative viability: 0.878
ChaGo-K-1; first compound 0.253 µM
  relative viability: 0.875
ChaGo-K-1; first compound 0.8 µM
  relative viability: 0.819
ChaGo-K-1; first compound 2.53 µM
  relative viability: 0.538
ChaGo-K-1; first compound 8 µM
  relative viability: 0.907
HARA; first compound 0.08 µM
  relative viability: 0.662
HARA; first compound 0.253 µM
  relative viability: 0.931
HARA; first compound 0.8 µM
  relative viability: 0.766
HARA; first compound 2.53 µM
  relative viability: 0.587
HARA; first compound 8 µM
  relative viability: 0.646
HCC-15; first compound 0.08 µM
  relative viability: 0.387
HCC-15; first compound 0.253 µM
  relative viability: 0.366
HCC-15; first compound 0.8 µM
  relative viability: 0.375
HCC-15; first compound 2.53 µM
  relative viability: 0.33
HCC-15; first compound 8 µM
  relative viability: 0.426
HCC-366; first compound 0.08 µM
  relative viability: 0.356
HCC-366; first compound 0.253 µM
  relative viability: 0.426
HCC-366; first compound 0.8 µM
  relative viability: 0.327
HCC-366; first compound 2.53 µM
  relative viability: 0.285
HCC-366; first compound 8 µM
  relative viability: 0.326
HCC-78; first compound 0.08 µM
  relative viability: 0.776
HCC-78; first compound 0.253 µM
  relative viability: 0.935
HCC-78; first compound 0.8 µM
  relative viability: 0.782
HCC-78; first compound 8 µM
  relative viability: 0.62
LCLC-97TM1; first compound 0.08 µM
  relative viability: 0.211
LCLC-97TM1; first compound 0.253 µM
  relative viability: 0.162
LCLC-97TM1; first compound 0.8 µM
  relative viability: 0.193
LCLC-97TM1; first compound 2.53 µM
  relative viability: 0.175
LCLC-97TM1; first compound 8 µM
  relative viability: 0.177
LK-2; first compound 0.08 µM
  relative viability: 0.719
LK-2; first compound 0.253 µM
  relative viability: 1.31
LK-2; first compound 0.8 µM
  relative viability: 0.822
LK-2; first compound 2.53 µM
  relative viability: 0.521
LK-2; first compound 8 µM
  relative viability: 0.575
LOU-NH91; first compound 0.08 µM
  relative viability: 0.802
LOU-NH91; first compound 0.253 µM
  relative viability: 0.712
LOU-NH91; first compound 0.8 µM
  relative viability: 0.762
LOU-NH91; first compound 8 µM
  relative viability: 0.782
NCI-H1355; first compound 0.08 µM
  relative viability: 0.436
NCI-H1355; first compound 0.253 µM
  relative viability: 0.406
NCI-H1355; first compound 0.8 µM
  relative viability: 0.384
NCI-H1355; first compound 2.53 µM
  relative viability: 0.343
NCI-H1355; first compound 8 µM
  relative viability: 0.448
NCI-H1650; first compound 0.08 µM
  relative viability: 0.462
NCI-H1650; first compound 0.253 µM
  relative viability: 0.553
NCI-H1650; first compound 0.8 µM
  relative viability: 0.602
